Reference: article PMC3565832 (mBio, 2013)

Tested on: HSV-1
Assay: HSV-1 IE gene expression in HeLa cells
Assay type: cell-based
Conditions: 50 µM, 5 h pretreatment, HSV-1 0.1 PFU/cell for 2 h

C[C@H](NCc1ccc(OCc2cccc(F)c2)cc1)C(N)=O [Safinamide, safinamide]
inhibition of expression of viral IE (ICP27 and ICP4) genes: did not show substantial inhibition
